Experimental data taken from paper PMC9482650, “Quantitative fragmentomics allow affinity mapping of interactomes” (Nature Communications, 2022).
Where two headings read alike, the source gives them in different places. Ends that are not written are not given here.

Columns and labels:
[1] = molecular target: T1, MAST2 PDZ (Homo sapiens, UniProt Q6P0Q8); test: biochemical; format: binding
T1 sequence (Q6P0Q8 1104-1192 limits assumed): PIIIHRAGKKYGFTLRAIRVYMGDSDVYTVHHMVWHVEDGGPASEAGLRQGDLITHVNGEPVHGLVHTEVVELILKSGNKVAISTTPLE

[2] = molecular target: SNX27 PDZ (Homo sapiens, UniProt Q96L92); test: Holdup assay; format: binding
[3] = molecular target: DLG1_2 PDZ (Homo sapiens, UniProt Q12959); test: Holdup assay; format: binding
[4] = molecular target: DLG1_1 PDZ (Homo sapiens, UniProt Q12959); test: Holdup assay; format: binding
[5] = molecular target: SCRIB_1 PDZ (Homo sapiens, UniProt Q14160); test: Holdup assay; format: binding
[6] = molecular target: T2, TX1BP3 PDZ (Homo sapiens, UniProt O14907); test: Holdup assay; format: binding
T2 sequence (O14907 15-112 limits assumed): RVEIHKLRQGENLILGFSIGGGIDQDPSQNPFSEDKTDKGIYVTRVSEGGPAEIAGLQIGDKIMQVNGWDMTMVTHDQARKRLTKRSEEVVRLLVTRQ

[7] = molecular target: T3, SCRIB2 PDZ (Homo sapiens, UniProt Q14160); test: Holdup assay; format: binding
T3 sequence (Q14160 862-950 limits assumed): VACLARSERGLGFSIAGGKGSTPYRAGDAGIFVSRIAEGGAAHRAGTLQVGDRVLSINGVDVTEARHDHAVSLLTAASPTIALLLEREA

[8] = molecular target: Htra1; conditions: SPR; ref Murwantoko et al 2004; cited from earlier work
Excerpt: (§1) Supplement 41467_2022_33018_MOESM4_ESM.xlsx, sheet "reference DMI interactome" | column: Affinity (mM); pKd, measured in literature

[9] = molecular target: Htra2; conditions: SPR; ref Murwantoko et al 2004; cited from earlier work
Excerpt: as §1

[10] = molecular target: T4, SYNJ2BP PDZ (Homo sapiens, UniProt P57105); test: Holdup assay; format: binding
T4 sequence (P57105 13-100 limits assumed): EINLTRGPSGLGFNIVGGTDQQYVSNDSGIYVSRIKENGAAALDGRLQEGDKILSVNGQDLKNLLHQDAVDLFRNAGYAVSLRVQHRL

[11] = tested on: HEK293T cells; test: Label-free MS proteome of stable cell lines expressing HPV16 E6 or E6ΔPBM; format: cell-based, human; conditions: protein level
Procedure: HEK293T and HeLa cells were authenticated and found 100% identity to ATCC cat. CRL-3216 and ATCC cat. CCL-2, respectively. Jurkat and HaCat cell lines were not authenticated (original source: ECACC and Deutsches Krebsforschungszentrum DKFZ, respectively). HeLa cells were grown in DMEM (1 g/L glucose, Gibco) medium completed with 5% FCS and 40 μg/mL gentamicin, diluted every 3rd/4th day 1/10. HaCat cells were grown in DMEM (1 g/L glucose, Gibco) medium completed with 10% FCS and 40 μg/mL gentamicin, diluted every 3rd/4th day 1/4. Jurkat cells were grown in RPMI (Gibco) medium completed with 10% FCS and 40 μg/mL gentamicin, diluted every 3rd/4th day 1/12. All cells were kept at 37 °C and 5% CO2. For proteomics analyses cells were seeded on T-175 flasks. After they reached confluency, adherent cells were washed with PBS once and collected by scraping with ice-cold lysis buffer (Hepes-KOH pH 7.5 50 mM, NaCl 150 mM, Triton X-100 1%, complete EDTA-free protease inhibitor cocktail 1×, EDTA 2 mM, TCEP 5 mM, glycerol 10%). Jurkat cells were collected by 1000 g × centrifugation, washed once with PBS, then collected by 1000 g × 5 min centrifugation again and lysed in ice-cold lysis buffer. Lysates were sonicated 4 × 20 s with 1 s long pulses on ice, then incubated rotating at 4 °C for 30 min. Lysates were centrifuged at 12,000 rpm 4 °C for 20 min and supernatant was kept for further analysis. Concentration determination was carried out by standard Bradford method (Bio-Rad Protein Assay Dye Reagent #5000006) using BSA (MP BIomedicals #160069) as control on a Bio-Rad SmartSpec 3000 spectrophotometer instrument.
The samples were precipitated with TCA 20% overnight at 4 °C and centrifuged at 14,000 rpm for 10 min at 4 °C. The protein pellets were washed twice with 1 mL cold acetone and air dried. The protein extracts were solubilized in urea 8 M, reduced with 5 mM TCEP for 30 min, and alkylated with 10 mM iodoacetamide for 30 min in the dark. Double digestion was performed at 37 °C with 500 ng endoproteinase Lys-C for 4 h, followed by fourfold dilution and an overnight digestion with 500 ng trypsin. Peptide mixtures were then desalted on C18 spin-column and dried on Speed-Vacuum.
Samples were analyzed using an Ultimate 3000 nano-RSLC (Thermo Scientific, San Jose California) coupled in line with a LTQ-Orbitrap ELITE mass spectrometer via a nano-electrospray ionization source (Thermo Scientific, San Jose California). Peptide mixtures were injected in 0.1% TFA on a C18 Acclaim PepMap100 trap-column (75 µm ID × 2 cm, 3 µm, 100 Å, Thermo Fisher Scientific) for 3 min at 5 µL/min with 2% ACN, 0.1% FA in H2O and then separated on a C18 Accucore nano-column (75 µm ID × 50 cm, 2.6 µm, 150 Å, Thermo Fisher Scientific) at 220 nl/min and 38 °C with a 90 min linear gradient from 5% to 30% buffer B (A: 0.1% FA in H2O/B: 99% ACN, 0.1% FA in H2O), regeneration at 5% B. The mass spectrometer was operated in positive ionization mode, in data-dependent mode with survey scans from m/z 350–1500 acquired in the Orbitrap at a resolution of 120,000 at m/z 400. The 20 most intense peaks from survey scans were selected for further fragmentation in the Linear Ion Trap with an isolation window of 2.0 Da and were fragmented by CID with normalized collision energy of 35%. (TOP20CID method) Unassigned and single charged states were excluded from fragmentation. The Ion Target Value for the survey scans (in the Orbitrap) and the MS2 mode (in the Linear Ion Trap) were set to 1E6 and 5E3 respectively and the maximum injection time was set to 100 ms for both scan modes. Dynamic exclusion was set to 20 s after one repeat count with mass width at ±10 ppm.
Proteins were identified by database searching using SequestHT (Thermo Fisher Scientific) with Proteome Discoverer 2.4 software (PD2.4, Thermo Fisher Scientific) on human FASTA database downloaded from SwissProt (reviewed, release 2020_11_27, 20304 entries, https://www.uniprot.org/). […]

[12] = holdup affinity of the PBM peptide of the named protein, sheet PBMcomplexome, lower sub-table
[13] = holdup affinity of the PBM peptide of the named protein, sheet PBMcomplexome, lower sub-table, 3.5 appears to be the floor for no detectable binding, read-out: affinity of PBM to DLG1_2 (pKd) (converted)
[14] = holdup affinity of the PBM peptide of the named protein, sheet PBMcomplexome, lower sub-table, 3.5 appears to be the floor for no detectable binding, read-out: affinity of PBM to SCRIB_1 (pKd) (converted)
[15] = holdup affinity of the PBM peptide of the named protein, sheet PBMcomplexome, lower sub-table, 3.5 appears to be the floor for no detectable binding, read-out: affinity of PBM to TX1BP3 (pKd) (converted)
[16] = PBM motif of the named protein vs DLG1_2 PDZ, read-out: pKd values – domain-motif, DLG1_2 (converted)
[17] = PBM motif of the named protein vs DLG1_1 PDZ, read-out: pKd values – domain-motif, DLG1_1 (converted)
[18] = PBM motif of the named protein vs SCRIB_1 PDZ, read-out: pKd values – domain-motif, SCRIB_1 (converted)
[19] = PBM motif of the named protein vs TX1BP3 PDZ, read-out: pKd values – domain-motif, TX1BP3 (converted)
[20] = PBM motif of the named protein vs SCRIB_2 PDZ, read-out: pKd values – domain-motif, SCRIB_2 (converted)

Sequence of SCRIB_1 PDZ (Q14160 728-815 limits assumed): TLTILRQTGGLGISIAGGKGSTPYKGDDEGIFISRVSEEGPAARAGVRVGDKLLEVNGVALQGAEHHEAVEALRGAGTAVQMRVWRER

Molecule: CC(C)C[C@H](NC(=O)[C@H](CC(=O)O)NC(=O)[C@@H]1CCCN1C(=O)[C@@H](NC(=O)CNC(=O)[C@H](CCC(=O)O)NC(=O)[C@H](CO)NC(=O)[C@H](CO)NC(=O)[C@H](CC(N)=O)NC(=O)[C@H](CC(C)C)NC(=O)[C@@H](N)CC(N)=O)C(C)C)C(=O)N[C@@H](CC(C)C)C(=O)N[C@H](C(=O)O)C(C)C [SARS-CoV-E]
- Kd [1]: 253 µM

Molecule: DDENIRTSDV [PLEKHA2]
- Kd [2, 12]: 14.5 µM
- Kd [3, 13]: 34.7 µM
- Kd ([4]; holdup affinity of the PBM peptide of the named protein, sheet PBMcomplexome, lower sub-table, 3.5 appears to be the floor for no detectable binding, read-out: affinity of PBM to DLG1_1 (pKd) (converted)): 158 µM
- Kd [5, 14]: 178 µM
- Kd [6, 15]: 17.8 µM
- Kd ([7]; holdup affinity of the PBM peptide of the named protein, sheet PBMcomplexome, lower sub-table, 3.5 appears to be the floor for no detectable binding, read-out: affinity of PBM to SCRIB_2 (pKd) (converted)): 178 µM

Molecule: DTKNYKQTSV [CRIPT]
- Kd [2]: 4.68 µM
- Kd [3, 16]: 8.51 µM
- Kd [4, 17]: 44.7 µM
- Kd [5, 18]: 13.2 µM
- Kd [6, 19]: 3.98 µM
- Kd [7, 20]: 24.5 µM

Molecule: EKPIDSETKM [SLC1A3]
- Kd [2, 12]: 6.61 µM

Molecule: EVVHTPETSV [SLC16A3]
- Kd [2]: 7.08 µM
- Kd [3, 16]: 50.1 µM
- Kd [4, 17]: 135 µM
- Kd [5, 18]: 8.32 µM
- Kd [6, 19]: 145 µM
- Kd [7, 20]: 33.1 µM

Molecule: FHPLGADSQV [SLC2A1]
- Kd [2]: 89.1 µM
- Kd [3, 16]: 132 µM
- Kd [5, 18]: 95.5 µM
- Kd [6, 19]: 170 µM

Molecule: KKKKGQYYFV [HtrA2-Opt]
- pKd, measured in literature [8]: 8.42
- pKd, measured in literature [9]: 7.7167

Molecule: LDSQIQETSI [MAP4]
- Kd [2]: 1.86 µM
- Kd [3, 16]: 42.7 µM
- Kd [4, 17]: 229 µM
- Kd [5, 18]: 2.75 µM
- Kd [6, 19]: 110 µM
- Kd [7, 20]: 35.5 µM

Molecule: PPRQRSETQV [HPV82E6]
- Kd [10]: 13.7 µM

Molecule: QGLAERISVL [PRKD2]
- Kd [2, 12]: 16.6 µM
- Kd [3, 13]: 214 µM
- Kd [5, 14]: 170 µM
- Kd [6, 15]: 41.7 µM

Molecule: QSARYRDTEL [TJP2 (ZO2)]
- Kd [2]: 20.4 µM
- Kd [3, 16]: 170 µM
- Kd [4, 17]: 209 µM
- Kd [5, 18]: 34.7 µM
- Kd [6, 19]: 17.4 µM
- Kd [7, 20]: 126 µM

Molecule: TBCD
- Difference log2 E6/Ctrl ([11]; E6 cell line vs control): 0.5689
- Ratio E6/Ctrl ([11]; E6 cell line vs control): 1.483
- Difference log2 dPBM/E6 ([11]; dPBM cell line vs E6 cell line): -3.03
- Ratio dPBM/E6 ([11]; dPBM cell line vs E6 cell line): 0.1225
- Difference log2 dPBM/Ctrl ([11]; dPBM cell line vs control): -2.461
- Ratio dPBM/Ctrl ([11]; dPBM cell line vs control): 0.1817

Molecule: TSQESEDTYL [TBC1D10A]
- Kd [2, 12]: 5.37 µM
- Kd [5, 14]: 102 µM
